Patent US6800649B1, “Method for inhibiting c-jun expression using JAK-3 inhibitors” (Parker Hughes Institute, priority 1998, dated 2004)

Assays:
JAK-1 = molecular target: T1, JAK-1 (Homo sapiens, UniProt P23458); test: Immune complex hot kinase assay of JAK-1 immunoprecipitated from baculovirus-infected Sf21 cells; assay type: biochemical; details: even at 75 μg/ml, 1 hour exposure of immune complexes before kinase assay
T1 construct: made in house; host or cells: Sf21 insect cells (baculovirus)
T1 sequence (P23458 whole entry, species assumed): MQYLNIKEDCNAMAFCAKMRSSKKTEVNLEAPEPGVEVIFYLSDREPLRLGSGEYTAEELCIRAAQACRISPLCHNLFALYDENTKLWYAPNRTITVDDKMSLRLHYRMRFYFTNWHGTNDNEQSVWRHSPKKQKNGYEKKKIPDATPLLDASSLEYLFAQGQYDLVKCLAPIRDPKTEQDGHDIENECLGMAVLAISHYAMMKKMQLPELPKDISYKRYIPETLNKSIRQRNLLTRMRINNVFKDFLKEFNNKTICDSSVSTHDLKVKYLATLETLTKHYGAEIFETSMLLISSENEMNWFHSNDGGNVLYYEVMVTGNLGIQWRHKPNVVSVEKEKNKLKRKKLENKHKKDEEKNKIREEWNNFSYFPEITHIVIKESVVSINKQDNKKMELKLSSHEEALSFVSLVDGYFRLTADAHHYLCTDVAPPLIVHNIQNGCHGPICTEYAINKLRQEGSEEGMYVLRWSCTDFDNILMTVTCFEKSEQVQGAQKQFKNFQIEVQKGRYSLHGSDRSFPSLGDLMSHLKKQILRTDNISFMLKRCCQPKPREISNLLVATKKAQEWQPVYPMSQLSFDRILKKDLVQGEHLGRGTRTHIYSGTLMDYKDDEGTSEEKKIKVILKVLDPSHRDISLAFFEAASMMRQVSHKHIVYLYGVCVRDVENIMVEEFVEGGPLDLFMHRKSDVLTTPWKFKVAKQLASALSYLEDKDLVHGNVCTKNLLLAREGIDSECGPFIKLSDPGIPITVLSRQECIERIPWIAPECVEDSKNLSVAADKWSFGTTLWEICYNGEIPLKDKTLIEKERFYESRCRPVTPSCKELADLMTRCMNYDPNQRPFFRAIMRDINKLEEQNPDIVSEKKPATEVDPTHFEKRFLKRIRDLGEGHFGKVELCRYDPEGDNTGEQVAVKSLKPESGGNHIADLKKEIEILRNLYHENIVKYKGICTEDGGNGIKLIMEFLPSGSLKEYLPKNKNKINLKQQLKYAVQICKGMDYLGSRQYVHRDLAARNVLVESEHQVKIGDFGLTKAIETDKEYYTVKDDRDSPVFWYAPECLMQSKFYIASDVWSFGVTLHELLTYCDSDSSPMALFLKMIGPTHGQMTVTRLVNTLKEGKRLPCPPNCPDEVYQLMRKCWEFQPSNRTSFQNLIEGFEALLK
Protocol: (§1) FIGS. 4B1-B4. JAK-3 Inhibitors. [A]. Structures of JAK-3 inhibitors. [B] Specificity of JAK-3 inhibitors. Sf21 cells infected with baculovirus expression vectors for JAK-1 JAK-2 or JAK-3 were subjected to immunoprecipitation with anti-JAK antibodies. JAK-1 (shown in B.1), JAK-2 (shown in B.2) and JAK-3 (shown in B.3 and B.4 which illustrate results from 2 independent experiments) immune complexes were treated with 1% DMSO (vehicle control=CON), Compound 1, or Compound 2 for 1 hour prior to hot kinase assays, as described (20,22). […] EMSAs of […]-IL-2Rβ cells. Compound 1(100 (g/ml) and Compound 2 (100 (g/ml) inhibited IL-2 triggered JAK-3-dependent STAT activation but not IL-3-triggered JAK-1/JAK-2-dependent STAT activation in 32Dc11-IL-2Rβ cells.
(§2) After establishing that LYN, BTK, and SYK kinases are not required for radiation-induced c-jun activation, we set out to determine if c-jun activation is functionally linked to the JAK-STAT pathway. To this end, we examined the effects of a JAK-3 inhibitory novel quinazoline derivative on c-jun expression levels in irradiated DT-40 cells. To identify a potent JAK-3 specific inhibitor, the effects of two novel quinazoline derivatives on the enzymatic activity of JAK-1, JAK-2, and JAK-3 were examined using Sf21 cells that were infected with baculovirus expression vectors for these kinases, using standard methods (FIG. 4). […]

[1] = system: IL-2 triggered JAK-3-dependent STAT activation; test: EMSA of IL-2 triggered STAT activation in 32Dc11-IL-2Rβ cells; assay type: cell-based; details: 100 (g/ml, EMSA (FIG. 4C legend))
Protocol: as §1
Electrophoretic Mobility Shift Assays (EMSAs) were performed to examine the effects of both compounds on cytokine-induced STAT activation. Specifically, 32Dc11/IL2Rβ cells (gift from James Ihle, St. Jude Children's Research Hospital) were exposed at 8×10^6/ml in RPMI supplemented with FBS to the JAK-3 inhibitors at a final concentration of 10 μg/ml in 1% DMSO) for 1 hour and subsequently stimulated with IL2 or IL3 as indicated. […]

JAK-2 = molecular target: T2, JAK-2 (Homo sapiens, UniProt O60674); test: Immune complex hot kinase assay of JAK-2 immunoprecipitated from baculovirus-infected Sf21 cells; assay type: biochemical; details: even at 75 μg/ml, 1 hour exposure of immune complexes before kinase assay
T2 construct: made in house; host or cells: Sf21 insect cells (baculovirus)
T2 sequence (O60674 whole entry, species assumed): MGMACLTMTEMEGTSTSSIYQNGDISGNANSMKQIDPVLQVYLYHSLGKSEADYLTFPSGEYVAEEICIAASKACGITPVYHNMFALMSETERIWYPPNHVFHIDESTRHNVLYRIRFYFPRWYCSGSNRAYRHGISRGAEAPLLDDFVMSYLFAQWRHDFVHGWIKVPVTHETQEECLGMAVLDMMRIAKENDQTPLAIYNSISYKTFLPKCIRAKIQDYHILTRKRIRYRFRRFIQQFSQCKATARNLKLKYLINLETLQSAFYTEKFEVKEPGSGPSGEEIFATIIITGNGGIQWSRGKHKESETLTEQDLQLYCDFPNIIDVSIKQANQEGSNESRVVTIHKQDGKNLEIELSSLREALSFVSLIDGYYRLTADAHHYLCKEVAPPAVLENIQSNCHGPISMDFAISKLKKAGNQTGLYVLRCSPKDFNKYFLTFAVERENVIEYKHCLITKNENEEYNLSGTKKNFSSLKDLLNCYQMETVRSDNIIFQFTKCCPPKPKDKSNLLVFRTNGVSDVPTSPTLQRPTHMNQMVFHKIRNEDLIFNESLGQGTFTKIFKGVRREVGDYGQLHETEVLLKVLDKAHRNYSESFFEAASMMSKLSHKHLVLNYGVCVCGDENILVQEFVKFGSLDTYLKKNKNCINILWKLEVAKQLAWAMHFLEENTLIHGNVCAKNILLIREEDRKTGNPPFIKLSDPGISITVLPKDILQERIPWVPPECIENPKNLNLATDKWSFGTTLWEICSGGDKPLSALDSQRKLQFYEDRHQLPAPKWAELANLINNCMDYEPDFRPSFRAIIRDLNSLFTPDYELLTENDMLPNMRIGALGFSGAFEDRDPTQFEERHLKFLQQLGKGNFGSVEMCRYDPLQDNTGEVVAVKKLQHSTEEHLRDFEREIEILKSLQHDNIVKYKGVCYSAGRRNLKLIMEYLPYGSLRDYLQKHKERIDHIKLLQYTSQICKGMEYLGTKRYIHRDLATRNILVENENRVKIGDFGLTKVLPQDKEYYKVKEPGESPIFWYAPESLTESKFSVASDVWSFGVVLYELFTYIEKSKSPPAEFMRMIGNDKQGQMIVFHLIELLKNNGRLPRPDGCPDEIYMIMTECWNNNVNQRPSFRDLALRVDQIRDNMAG
Protocol: as §1, §2

JAK-3 = molecular target: T3, JAK-3 (Homo sapiens, UniProt P52333); test: Immune complex hot kinase assay of JAK-3 immunoprecipitated from baculovirus-infected Sf21 cells; assay type: biochemical; details: 10 μg/ml, 1 hour exposure of immune complexes before kinase assay
T3 construct: made in house; host or cells: Sf21 insect cells (baculovirus)
T3 sequence (P52333 1-1124): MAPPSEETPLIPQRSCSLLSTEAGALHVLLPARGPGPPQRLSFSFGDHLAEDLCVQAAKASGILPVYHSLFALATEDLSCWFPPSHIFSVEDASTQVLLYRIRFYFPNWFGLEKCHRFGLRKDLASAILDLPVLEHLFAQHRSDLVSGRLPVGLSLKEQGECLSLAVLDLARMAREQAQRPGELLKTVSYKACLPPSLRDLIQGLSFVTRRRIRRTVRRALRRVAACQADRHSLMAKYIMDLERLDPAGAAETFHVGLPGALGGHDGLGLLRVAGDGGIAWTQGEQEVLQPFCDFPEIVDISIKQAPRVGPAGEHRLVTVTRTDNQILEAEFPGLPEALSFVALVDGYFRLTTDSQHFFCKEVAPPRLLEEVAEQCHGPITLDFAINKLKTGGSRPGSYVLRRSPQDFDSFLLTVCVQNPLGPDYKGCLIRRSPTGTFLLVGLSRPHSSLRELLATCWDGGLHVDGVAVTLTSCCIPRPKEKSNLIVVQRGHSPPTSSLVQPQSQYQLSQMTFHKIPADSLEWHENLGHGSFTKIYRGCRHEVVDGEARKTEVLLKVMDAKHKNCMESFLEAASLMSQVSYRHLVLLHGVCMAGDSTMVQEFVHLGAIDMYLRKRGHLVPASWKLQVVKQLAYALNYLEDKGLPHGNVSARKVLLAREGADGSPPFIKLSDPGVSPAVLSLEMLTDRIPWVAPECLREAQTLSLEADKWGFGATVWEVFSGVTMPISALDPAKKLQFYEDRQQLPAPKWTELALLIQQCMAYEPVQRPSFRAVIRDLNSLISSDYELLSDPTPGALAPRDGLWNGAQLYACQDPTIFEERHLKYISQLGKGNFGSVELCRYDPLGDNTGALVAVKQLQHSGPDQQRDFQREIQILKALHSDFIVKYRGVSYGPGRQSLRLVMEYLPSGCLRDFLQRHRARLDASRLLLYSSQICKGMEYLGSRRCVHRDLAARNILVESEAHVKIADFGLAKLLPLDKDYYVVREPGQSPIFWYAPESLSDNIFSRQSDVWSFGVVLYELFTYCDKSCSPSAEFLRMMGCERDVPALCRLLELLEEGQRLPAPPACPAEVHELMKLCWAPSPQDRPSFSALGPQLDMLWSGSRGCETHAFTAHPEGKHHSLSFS
Protocol: as §1, §2

[2] = system: c-jun expression in DT-40 chicken lymphoma B-cells; test: Radiation-induced c-jun mRNA expression by Northern blot; assay type: cell-based; parameters: unit of the concentration uncertain; details: DT-40 cells
Protocol: FIGS. 1A and 1B. Radiation-induced c-jun activation in wild-type DT-40 lymphoma B-cells. [A]. Dose reponse for induction of c-jun mRNA. DT-40 chicken cells were irradiated at the indicated doses (0, 10, 15, 20 Gy). Total RNA was extracted after a 2 hours or 4 hours post-irradiation time period. RNA ([…]) was loaded on a Northern gel and transferred by capillary blotting to a nylon membrane. The Northern blot was hybridized with a ^32P labeled chicken c-jun probe (top panel) or a chicken GAPDH probe (bottom panel). […] Effect of the PTK inhibitor genistein on induction of c-jun mRNA. Cells were treated with […] of genistein for 24 hours at 37° C. prior to exposure to 20 Gy ionizing radiation. c-jun expression levels were determined as in [A].
FIG. 5. Effects of a JAK-3 inhibitor on c-jun induction in irradiated DT-40 cells. Cells were treated with the quinazoline derivative 4(3′-Bromo-4′-hydroxyl-phenyl)-amino-6,7-dimethoxyquinazoline ([…]) for 24 hours at 37° C. prior to exposure to 20 Gy ionizing radiation. c-jun expression levels were determined as outlined in FIGS. 1-3. […]
A 506 basepair (bp) c-jun probe was obtained by polymerase chain reaction (PCR) amplification of chicken genomic DNA. Primer sequences were determined based upon the sequence of chicken c-jun (GenBank accession code CHKJUN). […]

Compound | inhibition of JAK-1 enzymatic activity (JAK-1) | inhibition of IL-2 triggered JAK-3-dependent STAT activation [1] | inhibition of JAK-2 enzymatic activity (JAK-2) | inhibition of JAK-3 enzymatic activity (JAK-3) | induction of c-jun expression by ionizing radiation in treated cells ([2]; 100 (unit uncertain) for 24 hours at 37° C. before 20 Gy ionizing radiation) | stimulation index (c-jun/GAPDH ratio, irradiated versus non-irradiated cells) ([2]; 30 (unit uncertain) for 24 hours at 37° C. before 20 Gy ionizing radiation)
COc1cc2ncnc(Nc3ccc(O)c(Br)c3)c2cc1OC [Compound 2, 4-(3′-Bromo-4′-hydroxylphenyl)-amino-6,7-dimethoxy-quinazoline] | did not inhibit | inhibited | did not inhibit | inhibited | failed to induce c-jun expression | 
COc1cc2ncnc(Nc3ccc(O)cc3)c2cc1OC [Compound 1, 4-(4′-Hydroxylphenyl)-amino-6,7-dimethoxy-quinazoline] | did not inhibit | inhibited | did not inhibit | inhibited |  | 
O=c1c(-c2ccc(O)cc2)coc2cc(O)cc(O)c12 [genistein, reference compound] |  |  |  |  |  | 1.1
